Entries after “also recorded” stand apart in the source; their conditions may differ.
Target: T1, α1-subunit of the human glycine receptor (Homo sapiens, UniProt P23415)
T1 construct: expressed in transfected cells; host or cells: HEK 293 cells, transiently transfected (Polyfect), co-transfected with GFP plasmid as marker; cDNA from Prof; H. Betz
T1 sequence (P23415 29-457): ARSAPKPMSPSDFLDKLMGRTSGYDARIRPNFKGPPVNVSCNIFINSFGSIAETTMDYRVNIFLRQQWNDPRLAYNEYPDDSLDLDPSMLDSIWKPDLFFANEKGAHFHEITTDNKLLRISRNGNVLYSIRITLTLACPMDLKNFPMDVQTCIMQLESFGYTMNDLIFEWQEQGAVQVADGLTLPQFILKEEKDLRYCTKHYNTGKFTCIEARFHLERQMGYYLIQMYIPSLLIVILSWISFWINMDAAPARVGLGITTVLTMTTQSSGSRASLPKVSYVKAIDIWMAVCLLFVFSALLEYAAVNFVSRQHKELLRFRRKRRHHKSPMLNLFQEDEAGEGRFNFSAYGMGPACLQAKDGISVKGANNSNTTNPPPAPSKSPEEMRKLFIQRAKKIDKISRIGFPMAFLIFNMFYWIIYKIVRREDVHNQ
Test: Whole-cell current recording with cell-flow method, HEK 293 cells expressing glycine receptor
Format: cell-based
Source text: In whole-cell current recording experiments with DECM-caged glutamate, HEK 293 cells stably transfected with cDNA encoding the GluR6 were used. In whole-cell current recording experiments with DECM-caged glycine, HEK 293 cells were transiently transfected with the cDNA of the α1-subunit of the human glycine receptor by using the Polyfect™ transfection reagent (Qiagen GmbH, D-40724, Hilden, Germany). The cDNA of the α1-subunit was kindly provided by Professor H. Betz (Max-Plank-Institute for brain Research, Frankfurt, Germany). The cells were co-transfected with cDNA encoding the green fluorescent protein (pGreen Lantern plasmid, Life Technologies, Gaitherberg, Md.) to detect transfected cells (Chalfie et al., “Green Fluorescent Protein as a Marker for Gene Expression,” Science 263:802-805 (1994), which is hereby incorporated by reference in its entirety).
The cells were used for electrophysiological experiments between 24 and 72 h after each passage. Whole-cell currents evoked by glutamate or glycine (100 μM) were recorded using the whole-cell configuration (Hamill et al., “Improved Patch-Clamp Techniques for High-Resolution Current Recording From Cells and Cell-Free Membrane Patches,” Pfluegers Arch 391:85-100 (1981), which is hereby incorporated by reference in its entirety) at room temperature, −60 mV, and pH 7.4. […]

CCN(CC)c1ccc2c(COC(=O)CN)cc(=O)oc2c1 [DECM-caged glycine, (7-N,N-Diethylaminocoumarin-4-yl)-methyl-glycine-trifluoroacetate]
whole-cell current evoked by 100 μM glycine, presence vs absence of compound (2 mM DECM-caged glycine (FIG. 10 legend), −60 mV, pH 7.4, 22° C.): does not inhibit
biological activity at glycine receptors (inhibition or activation) (HEK293 cells expressing glycine receptors): biologically inert; also recorded: neither DECM-caged glycine nor its byproducts inhibited or activated the glycine receptors
